Source: patent US20200085767A1, “Methods for Treating Hydrocephalus” (Indian University Research and Technology Corporation, priority 2016, published 2020)
Entries after “also recorded” stand apart in the source; their conditions may differ.

Test system: PCP-R choroid plexus cell line
Assay: Ussing chamber electrophysiology of TRPV4 agonist-stimulated transepithelial ion transport (short-circuit current and conductance)
Assay type: cell-based, porcine
From the text: In order to follow transepithelial ion movement, Ussing chamber electrophysiological techniques were used. The choroid plexus model is a high resistance, continuous cell line of porcine choroid plexus epithelial cells grown on permeable supports. […] The cells were mounted on electrophysiological apparatuses for analysis of transepithelial ion flux in response to inhibitory or stimulatory reagents. Filters were excised, mounted in a Ussing chamber, and connected to a DVC-1000 Voltage/Current Clamp with voltage and current electrodes on either side of the membrane. Each half of the chamber contained a tapered fluid compartment with fittings for voltage electrodes (close to the epithelial membrane) and current electrodes (at the opposite end of the chamber). The fluid chamber was water jacketed to maintain a constant temperature (37° C.). The cells were bathed in serum-free media. Media were circulated in the chambers and oxygenated by means of a 5% CO2/O2 gas lift. The spontaneous transepithelial potential difference was measured and clamped to zero, and the resultant short-circuit (SCC) was monitored continuously as a measurement of net transepithelial ion flux. As per convention, a negative deflection in the SCC was either cation secretion (from blood to CSF) or anion absorption (CSF to blood). Transepithelial resistance (TER) was recorded every 200 seconds throughout each experiment by applying a 2 mV pulse and using the resulting deflection in the SCC to calculate the TER by Ohm's law. Conductances were calculated from the change in current during the voltages pulses. Specifically conductance is the change in current divided by the magnitude of the imposed voltage. In all cases, the graphs shown in each panel represent a series of control and experimental cultures that were grown and analyzed in parallel.
After the basal current was stabilized, effectors were added to one or both sides of polarized monolayer as dictated by the physiological situation.
Further, conductance is a measurement of the permeability of the tissue to water and electrolytes. So, as the conductance goes up, one would expect greater ion and fluid permeability across the choroid plexus which is a barrier epithelium.
The same methods were used in this Example as in Example 1.

NCCC(Oc1ccc(C(F)(F)F)cc1)c1ccccc1 (stereo not shown) [norfluoxetine]
GSK1016790A-stimulated transepithelial potassium secretion in the direction of the CSF (short-circuit current, SCC) (cells pre-treated from time -10 to 0 minutes, GSK1016790A added at 0 minutes): effective at inhibiting the TRPV4-stimulated ion transport; also recorded: completely inhibited | TRPV4 agonist-induced increase in conductance (permeability) (pre-treatment before the TRPV4 agonist GSK1016790A): blocked this increased permeability

CC(C)C[C@H](NC(=O)c1cc2ccccc2s1)C(=O)N1CCN(C(=O)[C@H](CO)NS(=O)(=O)c2ccc(Cl)cc2Cl)CC1 [GSK1016790A]
change in conductance (agonist alone): large increase in the conductance | transepithelial ion transport response measured as short-circuit current (SCC) (agonist alone, added at time 0 minutes): consistent with cation secretion into the CSF
